This passage reports IC50 results from BindingDB's records for doi:10.1021/acsmedchemlett.0c00047 (Centre of Experimental Medicine, 2020).

The test is described as follows: Inhibition of SERCA1 in rat INS-1E cells assessed as reduction in cell viability incubated for 24 hrs by MTT assay. On the technique in general: Formazan colour is commonly taken as a measure of viable cells.

Turning to `CC1(C)Oc2cc3oc(-c4cc(O)cc(O)c4)cc3cc2CC1O` (stereo not given) [Moracin P], the IC50 came to 109 µM.

Consider `CC(C)=CCc1c(-c2ccc(O)cc2O)oc2c3c(cc(O)c2c1=O)OC(C)(C)C=C3` [Morusin, 3], for which the IC50 was 28.7 µM.

Take `Cc1cc2c3c(c1)-c1c(O)cc(-c4cc5ccc(O)cc5o4)cc1O[C@@]3(c1ccc(O)cc1O)Oc1cc(O)ccc1-2`: the IC50 is 18.2 µM.

Consider `COc1cc(O)c([C@@H]2CC(=O)c3c(O)cc(O)cc3O2)cc1C/C=C(\C)CCC=C(C)C`, for which the IC50 is 64.8 µM.

In the case of `CC(C)(O)C1Cc2cc3cc(-c4cc(O)cc(O)c4)oc3cc2O1` (stereo not given) [moracin O], the IC50 was found to be 111 µM.

The term IC50 denotes the point on the concentration scale where inhibition reaches its midpoint.
